From patent publication US4265830A, “Naphthalenetetrayletrakis(sulfonylimino)-aryl disulfonic acids and salts thereof” (priority 1979, dated 1981)
Like-named read-outs stand apart in the source and are kept apart here.

Columns and labels:
[1] = molecular target: T1, activated human C1 (Homo sapiens, UniProt P09871); test: Test Code 026 (C1 inhibitor); type: biochemical; details: activity in wells, twofold serial dilution assay; higher well number indicates higher activity
T1 sequence (P09871 16-437 limits assumed): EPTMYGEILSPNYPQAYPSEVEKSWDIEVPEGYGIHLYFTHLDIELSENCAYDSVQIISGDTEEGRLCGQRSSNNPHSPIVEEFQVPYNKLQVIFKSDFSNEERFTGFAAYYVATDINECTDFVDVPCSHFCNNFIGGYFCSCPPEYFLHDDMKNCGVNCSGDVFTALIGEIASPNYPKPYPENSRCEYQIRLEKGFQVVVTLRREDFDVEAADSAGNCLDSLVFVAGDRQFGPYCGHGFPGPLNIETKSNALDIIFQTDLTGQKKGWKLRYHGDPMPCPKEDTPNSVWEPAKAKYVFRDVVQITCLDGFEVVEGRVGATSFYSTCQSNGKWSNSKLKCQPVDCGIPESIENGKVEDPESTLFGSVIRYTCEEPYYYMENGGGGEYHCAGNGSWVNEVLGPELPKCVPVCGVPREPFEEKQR
T1 sequence (P09871 438-688 limits assumed): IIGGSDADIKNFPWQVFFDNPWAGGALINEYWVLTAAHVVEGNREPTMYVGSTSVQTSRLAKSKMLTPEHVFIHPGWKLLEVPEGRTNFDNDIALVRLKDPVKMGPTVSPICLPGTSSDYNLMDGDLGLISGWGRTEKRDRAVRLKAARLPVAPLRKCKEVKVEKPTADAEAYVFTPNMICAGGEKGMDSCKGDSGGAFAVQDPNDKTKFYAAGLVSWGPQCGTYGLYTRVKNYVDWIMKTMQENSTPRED
Text: (§1) An active inhibitor protects C2 from C1 and C4; (ii) Test Code 035 (C3-C9 inhibitor)--This test determines the ability of the late components of human complement (C3-C9) to lyse EAC 142 in the presence of appropriate dilutions of the test compound. An active inhibitor protects EAC 142 from lysis by human C3-C9; (iii) Test Code 036 (C-Shunt inhibitor)--In this test human erythrocytes rendered fragile are lysed in autologous serum via the shunt pathway activated by cobra venom factor in the presence of appropriate dilutions of the test compound. Inhibition of the shunt pathway results in failure of lysis; (iv) Forssman Vasculitis Test--Here, the well known complement dependent lesion, Forssman vasculitis, is produced in guinea pigs by intradermal injection of rabbit anti-Forssman antiserum. […] Percent inhibition is calculated by comparison with simultaneous controls. […]

[2] = tested on: late components of human complement (C3-C9); test: Test Code 035 (C3-C9 inhibitor), lysis of EAC 142; type: biochemical; details: activity in wells, twofold serial dilution assay; higher well number indicates higher activity
Text: as §1

[3] = tested on: complement activity; test: Guinea Pig Intraperitoneal Test (GPIP), serum complement activity; type: in vivo; details: Cavia porcellus, ip, 200 mg./kg. i.p., vs simultaneous controls
Text: An active inhibitor protects C2 from C1 and C4; (ii) Test Code 035 (C3-C9 inhibitor)--This test determines the ability of the late components of human complement (C3-C9) to lyse EAC 142 in the presence of appropriate dilutions of the test compound. An active inhibitor protects EAC 142 from lysis by human C3-C9; (iii) Test Code 036 (C-Shunt inhibitor)--In this test human erythrocytes rendered fragile are lysed in autologous serum via the shunt pathway activated by cobra venom factor in the presence of appropriate dilutions of the test compound. Inhibition of the shunt pathway results in failure of lysis; (iv) Forssman Vasculitis Test--Here, the well known complement dependent lesion, Forssman vasculitis, is produced in guinea pigs by intradermal injection of rabbit anti-Forssman antiserum. The lesion is measured in terms of diameter, edema and hemorrhage and the extent to which a combined index of these is inhibited by prior intraperitoneal injection of the test compound at 200 mg./kg. is then reported, unless otherwise stated; (v) Forssman Shock Test--Lethal shock is produced in guinea pigs by an i.v. injection of anti-Forssman antiserum and the harmonic mean death time of treated guinea pigs is compared with that of simultaneous controls; (vi) Complement Level Reduction Test--In this test, the above dosed guinea pigs, or others, are bled for serum and the complement level is determined in undiluted serum by the capillary tube method of U.S. Pat. No. 3,876,376 and compared to undosed control guinea pigs; (vii) Cap 50 Test--Here, appropriate amounts of the test compound are added to a pool of guinea pig serum in vitro, after which the undiluted serum capillary tube assay referred to above is run. The concentration of compound inhibiting 50% is reported; (viii) Guinea Pig Intraperitoneal Test (GPIP)--Guinea Pigs weighing about 300 g. are dosed intraperitoneally (i.p.) with 200 mg./kg. of the test compound dissolved in saline and adjusted to pH 7-8. […] Percent inhibition is calculated by comparison with simultaneous controls. […]

[4] = tested on: shunt pathway; test: Test Code 036 (C-Shunt inhibitor), lysis of human erythrocytes in autologous serum activated by cobra venom factor; type: cell-based; details: activity in wells, twofold serial dilution assay; higher well number indicates higher activity
Text: as §1

SMILES: O=S(=O)([O-])c1cc(NS(=O)(=O)c2cc(S(=O)(=O)Nc3cc(S(=O)(=O)[O-])cc(S(=O)(=O)[O-])c3)c3cc(S(=O)(=O)Nc4cc(S(=O)(=O)[O-])cc(S(=O)(=O)[O-])c4)cc(S(=O)(=O)Nc4cc(S(=O)(=O)[O-])cc(S(=O)(=O)[O-])c4)c3c2)cc(S(=O)(=O)[O-])c1.[Na+].[Na+].[Na+].[Na+].[Na+].[Na+].[Na+].[Na+] [5,5',5",5"'-[1,3,5,7-Naphthalenetetrayltetrakis(sulfonylimino)]tetrakis-1,3-benzenedisulfonic acid, octasodium salt]
- Cl 026* Wells [1]: +10 Wells
- C-Late 035* Wells [2]: +1 Wells
- inhibition at 200 mg/kg ([3]; 0.5 h, serum 30 minutes after injection, read-out: In Vivo Activity (Guinea Pig) % Inhibition Intraperitoneal, 30 minutes): -62%
- inhibition at 200 mg/kg ([3]; 1 h, serum 60 minutes after injection, read-out: In Vivo Activity (Guinea Pig) % Inhibition Intraperitoneal, 60 minutes): -59%
- inhibition at 200 mg/kg ([3]; 2 h, serum 120 minutes after injection, read-out: In Vivo Activity (Guinea Pig) % Inhibition Intraperitoneal, 120 minutes): -81%
- Shunt Inhibition 036* Wells [4]: +7 Wells
